From patent publication US8034606B2, “Acid tolerant Lactobacillus sakei probio-65 with the ability of growth suppression of pathogenic microorganisms and the anti-allergic effect” (priority 2005, dated 2011)

System: Lactobacillus sakei Probio-65
Assay: Antibiotic sensitivity test of the strain against fourteen antibiotics
Assay type: cell-based
Conditions: for Diameter: antibiotic amount 2 to 250 μg depending on antibiotic, compared with Resistance (mm); for Results: antibiotic amount (μg), resistant or susceptible by diameter (mm)

Compound	Diameter	Results
Cc1noc(NS(=O)(=O)c2ccc(N)cc2)c1C [Sulfisoxzazole]	0 mm	R
CC1(C)S[C@@H]2[C@H](NC(=O)Cc3ccccc3)C(=O)N2[C@H]1C(=O)O [Penicillin G]	20 mm	
Gentamicin	9 mm	R
Neomycin	9 mm	R
CN(C)c1ccc(O)c2c1C[C@H]1C[C@H]3[C@H](N(C)C)C(O)=C(C(N)=O)C(=O)[C@@]3(O)C(O)=C1C2=O [Minocyclin]	26 mm	S
